Where “and” joins values, the source holds several entries; their conditions need not be identical. Identical values can stand only once. Entries after “also recorded” stand apart in the source; their conditions may differ. Like-named read-outs stand apart in the source and are kept apart here.
Legend:
human cathepsin L = human cathepsin L (Homo sapiens (Human), UniProt P07711); assay: Human cathepsin L inhibition, Z-FR-AMC assay; format: biochemical; details: for Ki: pH 5.5, 25° C.
Summary of the method: (§1)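 Recombinant human enzymes were assayed at 25°C in sodium acetate pH 5.5 with 1 mM CHAPS, 1 mM EDTA, 5 mM DTT and 10% DMSO final, using the fluorogenic substrate Z-FR-AMC. AMC release (ex 360/em 460 nm) was followed over 30–60 min and converted to rates (μM/s) via an AMC standard curve.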

human cathepsin B = human cathepsin B (Homo sapiens (Human), UniProt P07858); assay: Human cathepsin B inhibition, Z-FR-AMC assay; format: biochemical; details: pH 5.5, 25° C.
Summary of the method: as §1

SARS-CoV-2 3CL protease = SARS-CoV-2 3CL protease (Severe acute respiratory syndrome coronavirus 2 (2019-nCoV) (SARS-CoV-2), UniProt P0DTD1); assay: biochemical; format: biochemical; details: pH 7.5; for Ki: read-out: Ki* 3CLpro
[1] = system: C2C12 mouse cardiomyoblast cell line; assay: Host cell cytotoxicity in the T. cruzi infection model; format: cell-based
Summary of the method: (§2)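 C2C12 murine cardiomyoblasts infected with T. cruzi were incubated with compound 48 h at 37 °C, fixed in 2% PFA and stained with 5 μg/ml DAPI. Automated microscopy imaging quantified host cells and parasites separately; host cytotoxicity derived as CC50.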

[2] = system: SARS-CoV-2 in Vero E6 cells; assay: Anti-CoV-2 activity in Vero E6 cells; format: cell-based
[3] = system: T. b. brucei bloodstream forms; assay: Growth of axenic cultures of T. b. brucei bloodstream forms (BSFs)
Protocol: Selected cruzain inhibitors were evaluated in axenic cell cultures of T. b. brucei and T. cruzi. Procyclic trypomastigotes of T. b. brucei (ATCC PRA-381) were grown in the SDM-79 medium at 26° C., and bloodstream forms (ATCC PRA-383) were grown at 37° C. in the HMI-9 medium at 5% C02. […] Both forms of T. b. brucei and T. cruzi were grown in media containing 10% fetal bovine serum (FBS) and penicillin/streptomycin (50 U mL^−1). […] Control samples contained equal amounts of DMSO. T. b. brucei and T. cruzi (5 mL in flask cultures) were seeded at ˜3×10^6 cells and diluted daily, maintaining a mid-log growth phase for up to 120 h. […] After each cell dilution, fresh compound or an equal volume of DMSO (control samples) was supplemented into the cultures, while maintaining a constant concentration of each inhibitor. Cell counts were scored using a Z2 Coulter Counter.
In vitro Cell Assays. Bloodstream form T. b. brucei strain SM427 was grown in HM1-9 medium that included fetal bovine serum (10%) and antibiotics (100 U/mL penicillin-streptomycin, Gibco™). Inhibitors dissolved in 100% (v/v) DMSO stock solutions were added at final concentrations of 0.5-20 μM (final concentrations of DMSO were <1% (v/v)). T. b. brucei were seeded at ˜1×10^6 cells at 37° C., and diluted daily to maintain a log phase of growth for up to 96 h. […] After each dilution, the cell cultures were supplemented with inhibitor or DMSO (control) to keep concentrations constant. Cell density was determined and graphed as previously reported.^36 Trypanosomes were quantified using a Z2 Coulter Counter, and values of EC50 were determined after 3-4 days of treatment by the interpolation method of Huber and Koella.^37

human cathepsin S = human cathepsin S (Homo sapiens (Human), UniProt P25774); assay: Human cathepsin S inhibition; format: biochemical; details: pH 5.5, 25° C., 10% DMSO
Protocol: Cruzain inhibitors were added at seven concentrations and one fixed concentration of Cbz-Phe-Arg-AMC, and time courses of AMC formation were analyzed as with cruzain.

[4] = Host cell cytotoxicity in the T. cruzi infection model; format: cell-based, mouse; details: mouse
Summary of the method: as §2

[5] = Thiolation of inhibitors with glutathione, LCMS; format: physicochemical; details: for Rate of Thiolation, k: 1 mM glutathione, 0.5 mM compound, Tris pH 8.0, 10% DMSO, room temperature
Protocol: Samples were analyzed by HPLC-MS (as described above) by injecting 0.01 mL aliquots onto a Luna […] C18(2) 100 Å, 4.6 mm, 50 mm column (Phenomenex) using the HPLC method described in the chemistry section at 0-6 h time points. […] Integration of the chromatographic peaks of the inhibitors and their GSH adducts at each time point was used to determine the rate of GSH adduct formation.

[6] = Solubility of cruzain inhibitors in 10% DMSO, light scattering; format: physicochemical
Protocol: Synthetic PVHIs such as 5-16 and 22-24 at final concentrations of 1-200 μM were added to 0.25 mL solutions of 10% DMSO (v/v) in clear 96-well Greiner plates, and absorbance at 620 nm was measured using a BioTek M2 Synergy plate reader at t=0 and 120 min to evaluate increased light scattering and precipitated inhibitor.

[7] = Detection of aldehyde content using phenylhydrazine; format: physicochemical; details: aqueous buffer, 1 mM phenylhydrazine, 2 hours
Protocol: Detection of Aldehyde Content Using Phenylhydrazine. In a 96-well clear microplate, compounds 52 and 36 in DMSO solutions, or pure DMSO as a control, were diluted into the above NMR buffer without addition of DTT to make 250 μL-samples, each containing 0.2 mM of compounds and 10% DMSO (v/v). Upon addition of 1M phenylhydrazine (0.25 μL), the formation of phenylhydrazone in these wells were continuously monitored for 2 hours by measuring UV absorbance at the maximal wavelength of 282 nm.

[8] = system: trypanosomes (T. b. brucei, T. cruzi); assay: Anti-trypanosomal activity, culture not stated; format: cell-based; details: culture (T. b. brucei PCF/BSF or T. cruzi-infected cardiomyoblasts) not stated
[9] = mice, intravenous administration, data not shown
[10] = read-out: EC50 T. b. brucei BSF, axenic culture
[11] = 10% DMSO, read-out: Ki* Human Cathepsin L
[12] = 10% DMSO, read-out: Ki* Human Cathepsin B

Chain of human cathepsin S (P25774 115-331): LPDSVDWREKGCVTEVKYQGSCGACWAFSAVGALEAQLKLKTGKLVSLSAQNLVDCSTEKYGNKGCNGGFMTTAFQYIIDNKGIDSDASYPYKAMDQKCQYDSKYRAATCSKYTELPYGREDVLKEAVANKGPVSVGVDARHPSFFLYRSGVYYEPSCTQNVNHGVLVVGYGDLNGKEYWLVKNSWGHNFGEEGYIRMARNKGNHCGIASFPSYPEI
Chain of human cathepsin L (P07711 114-333): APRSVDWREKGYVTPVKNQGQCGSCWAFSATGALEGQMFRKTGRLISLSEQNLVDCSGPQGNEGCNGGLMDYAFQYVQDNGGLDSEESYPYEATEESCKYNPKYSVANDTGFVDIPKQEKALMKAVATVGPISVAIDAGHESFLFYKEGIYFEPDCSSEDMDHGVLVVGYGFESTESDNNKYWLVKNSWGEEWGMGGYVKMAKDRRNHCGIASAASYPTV

Row | SMILES | Ki (human cathepsin L; read-out: Ki* hCatL) [µM] | Ki (human cathepsin B; read-out: Ki* hCatB) [µM] | Ki (SARS-CoV-2 3CL protease) [µM] | CC50 [1] [µM] | EC50 [2] | EC50 [3, 10] [µM] | Ki (human cathepsin L; [11]) [µM] | Ki (human cathepsin B; [12]) [µM] | Ki (human cathepsin S) [µM] | apparent rate of GSH addition relative to K11777 [5] [fold] | Rate of Thiolation, k [5] | other results
1 | O=C(N[C@@H](Cc1ccccc1)C(=O)N[C@H]1Cc2ccccc2OC1O)OCc1ccccc1 (stereo partly shown) [Compound 30] | 0.028 ± 0.0009 | 4.5 ± 0.1 | > 10 | > 10 | 5 µM and 2.5 to 7.5 µM | 6.8 ± 1.1 |  |  |  |  |  | selectivity for cruzain vs human cathepsin L and S (human cathepsin L): more than 10 fold; Ki* 3CLpro (SARS-CoV-2 3CL protease): not an inhibitor of 3CL protease
2 | C[n+]1ccccc1/C=C/[C@H](Cc1ccccc1)NC(=O)[C@H](Cc1ccccc1)NC(=O)OCc1ccccc1.[I-] [Compound 12, 2-((S,E)-3-((S)-2-(((Benzyloxy)carbonyl)amino)-3-phenylpropanamido)-4-phenylbut-1-en-1-yl)-1-methylpyridin-1-ium Iodide] |  |  |  |  |  |  | 0.7 ± 0.04 | 19 ± 4 | 0.87 ± 0.07 | 8 | 0.617 ± 0.033 M⁻¹ s⁻¹ | CC50 at 48 h [4]: > 10 µM; solubility ([6]; in 10% DMSO): ≥ 50 µM; EC50 ([3]; Trypanosoma brucei, read-out: EC50 T. b. brucei BSF, axenic culture): 6.6 ± 0.6 µM
3 | O=C(N[C@@H](Cc1ccccc1)C(=O)N[C@H](/C=C/c1ccccn1)Cc1ccccc1)OCc1ccccc1 [Compound 11, Benzyl ((S)-1-Oxo-3-phenyl-1-(((S,E)-1-phenyl-4-(pyridin-2-yl)-but-3-en-2-yl)amino)propan-2-yl)carbamate] |  |  |  |  |  |  | 4.3 ± 0.5 | 28 ± 4 | 1.8 ± 0.3 |  | Negligible | CC50 at 48 h ([4]; host cardiomyoblasts, read-out: C2C12 Cytotoxicity CC50): > 10 µM
4 | CN1CCN(C(=O)NC(Cc2ccccc2)C(=O)NC2Cc3ccccc3OC2O)CC1 (stereo not shown) [Compound 36] | 0.02 ± 0.0009 | 1.27 ± 0.07 | > 10 |  | 7.5 µM | 0.6 |  |  |  |  |  | free aldehyde by phenylhydrazine treatment [7]: no free aldehyde could be detected; also recorded: remained intact after 2 hours; EC50 [8]: 0.5 to 29 µM; half-life [9]: short half-life
5 | C[n+]1ccccc1/C=C/[C@H](CCc1ccccc1)NC(=O)[C@H](Cc1ccccc1)NC(=O)OCc1ccccc1 [Compound 15, 2-((S,E)-3-((S)-2-(((Benzyloxy)carbonyl)amino)-3-phenylpropanamido)-5-phenylpent-1-en-1-yl)-1-methylpyridin-1-ium] |  |  |  | > 10 |  | 2.8 ± 0.1 | 0.88 ± 0.06 | 37 ± 6 | 0.32 ± 0.04 | 8 | 0.9 ± 0.067 M⁻¹ s⁻¹ | solubility [6]: ≥ 50 µM

From patent publication US20240150396A1 (The Texas A&M University System, priority 2021, published 2024)
